Laboratory results taken from patent publication US10183941B2, “Pyrimidine or pyridopyridone compound and application thereof” (GUANGZHOU BEBETTER MEDICINE TECHNOLOGY CO., LTD., priority 2015, dated 2019).
Read-outs that look alike come from different tables or passages of the source.

Key:
[1] = molecular target: T1, CDK2 (Homo sapiens, UniProt P24941); assay: CDK2 activity inhibition experiment (Caliper mobility shift assay); type: biochemical; details: enzyme activity inhibition; read-out: CDK2 IC50 class
T1 construct: purchased Carna 04-103
Procedure: After being incubated at 28° C. for 60 minutes, 25 μl of stop solution was added to stop the reaction. Conversion rate data was read from Caliper EZ Reader II (Caliper Life Sciences). The conversion rate data was converted into inhibition rate data. […] The curve was plotted with compound concentration and inhibition rate as horizontal and vertical coordinates, and the IC50 was calculated by fitting the curve using XLFit excel add-in version 4.3.1 software. Inhibition rate %=(max-conversion rate)/(max-min)×100.

[2] = molecular target: T2, CDK4 (GST-CDK4(1-303end)/GST-CycD3(1-292end)) (Homo sapiens, UniProt P11802); assay: CDK4 activity inhibition experiment (Caliper mobility shift assay); type: biochemical; details: enzyme activity inhibition; read-out: CDK4 IC50 class
T2 construct: GST-CDK4(1-303end); purchased Carna 04-105

[3] = molecular target: T3, CDK6 (GST-CDK6(1-326end)) (Homo sapiens, UniProt Q00534); assay: CDK6 activity inhibition experiment (Caliper mobility shift assay); type: biochemical; details: enzyme activity inhibition; read-out: CDK6 IC50 class
T3 construct: GST-CDK6(1-326end); purchased Carna 04-107
Procedure: The activity of CDK6 protein kinase was measured using Caliper mobility shift assay (see J. Biomol Screen 14:31, 2009). […] 10 μl of the 2.5 times diluted CDK6 enzyme solution (GST-CDK6(1-326end); Carna, Cat. No 04-107) was added and then incubated at room temperature for 10 minutes, then 10 μl of the 2.5 times diluted substrate solution Peptide FAM-P8 (GL Biochem, Cat. No. 112396) was added. After being incubated at 28° C. for 40 minutes, 25 μl of stop solution was added to stop the reaction. Conversion rate data was read from Caliper EZ Reader II (Caliper Life Sciences). The conversion rate data was converted into inhibition rate data. […] Conversion rate data was converted into inhibition rate data according to the method described above. Inhibition rate %=(max−conversion rate)/(max−min)×100.

[4] = test system: SW620; assay: Tumor cell proliferation inhibition (CellTiter-Glo), SW620; type: cell-based; details: Homo sapiens, SW-620; 72 hours, 10% fetal bovine serum; read-out: SW620 IC50 class
Procedure: (§1) The content of adenosine triphosphate (ATP) was determined using the CellTiter-Glo Luminescent Cell Viability Assay Kit (Promega, Madison, Wis.) to evaluate cell viability. Tumor cell lines (SW620, ZR-75-1, MDA-MB-231) were purchased from the Cell Resource Center of IBS, Fudan University, Shanghai and the American Type Culture Collection (ATCC). The cell density was determined using Scepter automated cell counter (Millipore # PHCC00000) after the cells were digested with pancreatin in cell culture dishes and resuspended in DPBS medium. The cells were diluted to a solution of 44,000 cells per ml. The cell solution of which density was adjusted was added into the cell assay plate at 90 microliters per well. The well plate was incubated in an incubator with 5% CO2 at 37° C. for 24 hours and then added with test compounds with different concentrations. The cells were incubated with the compounds in the presence of 10% fetal bovine serum for 72 hours. ATP content was assayed using the CellTiter-Glo® Luminescent Cell Viability Assay kit (see instructions of manufacturer) to assess cell growth inhibition. Briefly, 30 μl of CellTiter-Glo® reagent was added to each well, rocked for 10 minutes to induce cell lysis, and […] were detected and recorded with Fluoroskan Ascent FL (Thermo). The maximum signal value was obtained from the cells treated with dimethyl sulfoxide for 72 hours. The minimum signal value was obtained from the separate culture medium (cell number was zero). Inhibition rate %=(maximum signal value−compound signal value)/(maximum signal value−minimum signal value)×100. Data was processed using GraphPad Prism V5.0 (GraphPad Software, San Diego, Calif.) software. IC50 values were calculated by fitting S-shaped dose-response curves.

[5] = test system: ZR-75-1; assay: Tumor cell proliferation inhibition (CellTiter-Glo), ZR-75-1; type: cell-based; details: Homo sapiens, 72 hours, 10% fetal bovine serum, read-out: ZR-75-1 IC50 class
Procedure: as §1

[6] = test system: MDA-MB-231; assay: Tumor cell proliferation inhibition (CellTiter-Glo), MDA-MB-231; type: cell-based; details: Homo sapiens, 72 hours, 10% fetal bovine serum, read-out: MDA-MB-231 IC50 class
Procedure: as §1

[7] = test system: MDA-MB-231 breast cancer cells; assay: Cell cycle inhibition experiment (PI staining, flow cytometry); type: cell-based; details: Homo sapiens, MDA-MB-231 cells, 24 h
From the text: The cell cycle and apoptosis assay kit (Beyotime, C1052) used in this experiment is an assay kit for analyzing the cell cycle and apoptosis using the classic method of Propidium staining (PI staining). Propidium (PI) is a double-stranded DNA fluorescent dye. The combination of propidium and double-stranded DNA can produce fluorescence, and fluorescence intensity is proportional to the amount of double-stranded DNA. After DNA in cells is stained with propidium, the DNA content of the cells can be measured by flow cytometry, and then the cell cycle and apoptosis can be analyzed according to the distribution of DNA content.
MDA-MB-231 cells were seeded into a 6-well plate at 3×10^5 per well and cultured for 24 hours.
In tumor cell cycle, the binding of CDK4 and CDK6 to cyclin D promotes G1 phase into S phase. CDK4/6 inhibitor selectively arrests the G1 phase of tumor cells into S phase. The detection results of the cell cycle of MDA-MB-231 breast cancer cells by flow cytometry indicate that the CDK4/6 inhibitor compounds provided by the present disclosure stop the growth of G1 phase cells and reduce S phase cells in a concentration-dependent manner, as shown in the following table.

[8] = test system: phosphorylation of Rb at Ser780 in MDA-MB-231 breast cancer cells; assay: Western Blot experiment, Rb phosphorylation; type: cell-based; details: MDA-MB-231 cells, 16 hours incubation, FIG. 1
Procedure: MDA-MB-231 cells were grown in monolayer culture. […] The protein concentration was determined by the Branfor method. After being added with a loading buffer (Beyotime, # P0015L), the supernatant was boiled at 100° C. for 8 min, and the protein was separated by 8%-10% SDS-PAGE electrophoresis and then transferred to the PVDF membrane, and the membrane was blocked with 5% skimmed milk powder for 45 min, and then the cells were incubated overnight at 4° C. with primary antibody β-actin (CST, #4970), Rb (D20) Rabbit mAb (CST, #9313), Phospho-Rb(Ser780)(D59B7) Rabbit mAb (CST, #8180), and then the membrane was washed with TBST solution for 3×10 min. The cells were incubated in the dark at room temperature for 2 h with the fluorescent secondary antibody IRDye@680CW Goat (polyclonal) Anti-Rabbit 1gG (H+L), Highly Cross Adsorbed (LI-COR, #926-68071), and then the membrane was washed under the same condition above. Finally, the membrane was detected and imaged on a LI-COR Odyssey Infrared Fluorescence Scanning System, and the results are shown in FIG. 1.
CDK4/6 can make Rb protein lose the arrest on cell cycle by phosphorylating the tumor suppressor protein Rb protein. CDK4/6 inhibitor can prevent the inactivation of tumor suppressor protein Rb and thereby restore the arrest of Rb on cell cycle.

[9] = Pharmacokinetic (PK) experiment in rats; type: in vivo; details: male, SD, plasma, po, rat, intragastric 20 mg/kg; for AUC(0-t): 0-24 hour
Procedure: Male SD rats weighing 300-350 g were fasted overnight prior to the experiment. The compounds to be tested were dissolved in 30% sulfobutyl ether-β-cyclodextrin (SBE-β-CD) and the rats were intragastric administration at 20 mg/kg. The blood was taken from the tails of the rats at 15 min, 30 min, and 1, 2, 3, 4, 6, 8 and 24 hours after administration, with about 0.3 ml of blood at each time point, and then the blood was placed in a centrifuge tube containing K2-EDTA, and centrifuged (2,000 g, 10 min, 4° C.) to take the plasma which was then stored in an ultra-low temperature freezer at −80° C. 50 μL, of plasma sample was mixed with 5 μL of internal standard (IS) and extracted with ethyl acetate. The residue was redissolved in acetonitrile after vacuum drying. The sample was filtered and injected into LC-MS/MS for analysis to determine the concentration of the compounds to be tested.
In the table: Tmax refers to the peak time, Cmax refers to the maximum plasma drug concentration, T1/2 is the half-life, AUClast refers to the area under the 0-24 hour time-concentration curve, AUCinf refers to the area under the 0-Inf time-concentration curve.

[10] = test system: MDA-MB-435 breast cancer cells; assay: Pharmacodynamic experiment, MDA-MB-435 xenograft; type: in vivo, mouse
Procedure: MDA-MB-435 breast cancer cells were obtained from Shanghai Cell Bank of Chinese Academy of Sciences. Cryopreserved cells were thawed in a 37° C. water bath and then placed in RPMI 1640 medium supplemented with 10% fetal bovine serum (FBS), 1% insulin (Bioman Biotech, Shanghai) and incubated in 5% CO2 of Tissue Culture Incubator. […] The sign of successful transplantation was the formation of a round bulging lump under the skin. Tumor size can be measured approximately two weeks after implantation. The tumor size was measured by a caliper.

[11] = cited from earlier work
[12] = test system: locally advanced or metastatic breast cancer, ER+ / HER2−; details: cited from earlier work

T2 sequence (P11802 whole entry): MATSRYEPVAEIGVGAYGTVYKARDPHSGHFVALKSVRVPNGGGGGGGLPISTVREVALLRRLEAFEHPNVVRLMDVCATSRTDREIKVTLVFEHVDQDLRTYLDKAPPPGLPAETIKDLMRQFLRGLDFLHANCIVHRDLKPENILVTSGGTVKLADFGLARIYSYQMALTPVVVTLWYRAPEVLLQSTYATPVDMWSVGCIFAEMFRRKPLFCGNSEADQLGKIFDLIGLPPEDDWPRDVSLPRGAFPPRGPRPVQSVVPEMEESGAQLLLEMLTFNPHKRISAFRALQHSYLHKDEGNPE
T2 sequence (P30281 whole entry partner): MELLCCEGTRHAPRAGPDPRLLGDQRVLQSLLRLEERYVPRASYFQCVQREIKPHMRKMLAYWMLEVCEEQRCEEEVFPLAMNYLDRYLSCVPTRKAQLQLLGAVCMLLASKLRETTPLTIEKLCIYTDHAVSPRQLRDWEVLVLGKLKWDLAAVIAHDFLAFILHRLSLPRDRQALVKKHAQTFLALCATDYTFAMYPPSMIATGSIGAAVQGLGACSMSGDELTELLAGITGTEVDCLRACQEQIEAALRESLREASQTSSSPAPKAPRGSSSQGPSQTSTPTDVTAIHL
T3 sequence (Q00534 whole entry): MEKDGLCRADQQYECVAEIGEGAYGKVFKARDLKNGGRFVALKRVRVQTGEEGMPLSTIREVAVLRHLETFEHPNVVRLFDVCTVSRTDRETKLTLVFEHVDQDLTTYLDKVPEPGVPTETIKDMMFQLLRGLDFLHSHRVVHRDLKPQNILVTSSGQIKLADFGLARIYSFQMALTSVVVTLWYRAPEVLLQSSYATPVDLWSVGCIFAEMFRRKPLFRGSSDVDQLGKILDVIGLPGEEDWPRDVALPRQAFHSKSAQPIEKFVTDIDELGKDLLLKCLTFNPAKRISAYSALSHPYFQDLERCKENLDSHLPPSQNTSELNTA
T3 sequence (P30281 whole entry partner): as the sequence (P30281 whole entry partner) above

SMILES | IC50 [1] [µM] | IC50 [2] [µM] | IC50 [3] [µM] | IC50 [4] [µM] | IC50 [5] [µM] | IC50 [6] [µM] | IC50 ([7]; read-out: IC50 (nM) G1 arrest) [nM] | IC50 ([7]; read-out: IC50 (nM) S decrease) [nM] | further results
CC(=O)c1c(C)c2cnc(Nc3ccc(C4CCN(CCCS(C)(=O)=O)CC4)cn3)nc2n(C2CCCC2)c1=O [Compound 2, 6-acetyl-8-cyclopentyl-5-methyl-2-((5-(1-(3-(methylsulfonyl)propyl)piperidin-4-yl)pyridin-2-yl)amino)pyrido[2,3-d]pyrimidin-7(8H)-one] | > 0.5 | < 0.01 | 0.01 to 0.05 | 0.1 to 0.5 | ≤ 0.1 | 0.1 to 0.5 | 39.8 | 40.9 | phosphorylation of Rb at Ser780 site [8]: effectively reduce; Cmax [9]: 0.86 µg/mL; Tmax [9]: 2.7 h; half-life [9]: 5 h; AUC(0-t) [9]: 11.2 µg·h/mL; AUC(0-inf) [9]: 11.7 µg·h/mL
CC(=O)c1c(C)c2cnc(Nc3ccc(C4CCN(CCS(=O)(=O)c5ccc(Cl)cc5)CC4)cn3)nc2n(C2CCCC2)c1=O [Compound 4, 6-acetyl-2-((5-(1-(2-((4-chlorophenyl)sulfonyl)ethyl)piperidin-4-yl)pyridin-2-yl)amino)-8-cyclopentyl-5-methylpyrido[2,3-d]pyrimidin-7(8H)-one] |  |  | > 0.5 |  |  |  |  |  | 
CC(=O)c1c(C)c2cnc(Nc3ccc(C4CCCN(CCS(C)(=O)=O)C4)cn3)nc2n(C2CCCC2)c1=O (stereo not shown) [Compound 5, 6-acetyl-8-cyclopentyl-5-methyl-2-((5-(1-(2-(methylsulfonyl)ethyl)piperidin-3-yl)pyridin-2-yl)amino)pyrido[2,3-d]pyrimidin-7(8H)-one] | > 0.5 | 0.01 to 0.05 | 0.01 to 0.05 | 0.1 to 0.5 | 0.1 to 0.5 | 0.5 to 1 |  |  | 
CC(=O)c1c(C)c2cnc(Nc3ccc(C4CCN(CCS(C)(=O)=O)CC4)cn3)cc2n(C2CCCC2)c1=O [Compound 13, 3-acetyl-1-cyclopentyl-4-methyl-7-((5-(1-(2-(methylsulfonyl)ethyl)piperidin-4-yl)pyridin-2-yl)amino)-1,6-naphthyridin-2(1H)-one] | > 0.5 | < 0.01 | 0.01 to 0.05 | 1 to 5 | 0.5 to 1 | 0.5 to 1 |  |  | 
CN(C)C(=O)c1cc2cnc(Nc3ccc(N4CCNCC4)cn3)nc2n1C1CCCC1 [LEE011, reference compound] |  |  |  | 0.5 to 1 | ≤ 0.1 | 1 to 5 |  |  | 
CCN1CCN(Cc2ccc(Nc3ncc(F)c(-c4cc(F)c5nc(C)n(C(C)C)c5c4)n3)nc2)CC1 [LY2835219, reference compound] |  |  |  | 0.1 to 0.5 | ≤ 0.1 | 0.1 to 0.5 | 35.2 ± 8.9 | 42.9 ± 13.5 | 
CC(=O)c1c(C)c2cnc(Nc3ccc(N4CCNCC4)cn3)nc2n(C2CCCC2)c1=O [PD-0332991, Palbociclib, reference compound] |  |  |  | 0.1 to 0.5 | 0.1 to 0.5 | 0.1 to 0.5 | 42.4 ± 16.1 | 45.1 ± 10.9 | Cmax [9]: 0.213 µg/mL; Tmax [9]: 1.2 h; half-life [9]: 10 h; AUC(0-t) [9]: 1.25 µg·h/mL; AUC(0-inf) [9]: 1.4 µg·h/mL; average body weight of the mice ([10]; after 6 days of oral 150 mg/kg once daily): significantly reduced; T/C value ([10]; after 14 days of oral administration, PD-0332991 150 then 100 mg/kg once daily, Compound 1 75 mg/kg twice daily): 41%; T/C value ([10]; day 6 after discontinuation (D20)): 35%; elimination half-life (Average) ([11]; Phase I clinical): 25.9 h; AUC ([11]; Phase I, single oral dose of 25-150 mg): 0.058 to 0.641 µg·h/mL; side effects ([12]; clinical, Pfizer Press Release): leukocyte reduction and fatigue
N#Cc1ccc(C(c2ccc(C#N)cc2)n2cncn2)cc1 [letrozole] |  |  |  |  |  |  |  |  | progression-free survival (PFS) ([12]; phase II, postmenopausal women, ER+ HER2− breast cancer, p=0.0004): 10.2 months
